Experimental data published in patent US20130178441A1, “Methods for Extending Progression-Free Survival using 10-Propargyl-10-Deazaaminopterin” (ALLOS THERAPEUTICS, INC., priority 2010, published 2013).
Values joined by “and” are separate entries in the source; they are usually repeats but may differ in a detail not shown here. Equal values may be shown once. “Also recorded” adds a separate entry of the source. Marks after values point to notes of the source that are not given here.

Test system: relapsed/refractory PTCL
Experiment: PROPEL subset analysis: second-line pralatrexate after first-line CHOP only (N=15) vs other patients (n=94)
Format: in vivo, human
Procedure: The most common therapy for first-line treatment of PTCL is the multi-agent combination cyclophosphamide/doxorubicin/vincristine prednisone (CHOP). However, most patients progress within 6-12 months, and there is no standard of care for second-line treatment of these patients. Thus optimal second-line approaches are needed and agents based on a unique mechanism of action warrant study. This analysis was conducted to determine if pralatrexate offered a beneficial second-line treatment option. […] All patients in the PROPEL study had received at least 1 prior therapy for PTCL. […] The efficacy in these patients was compared with the remainder of the patient population who had not received CHOP as their only therapy for PTCL prior to pralatrexate (n=94).

[1] = 15 patients with CHOP as only prior therapy
[2] = individual responders after first-line CHOP, central review, most values censored
[3] = other patients in the study (n=94)
[4] = second-line after CHOP, N=15, central review
[5] = second-line after CHOP, N=15, investigator
[6] = second-line after CHOP, N=15, investigator, Kaplan-Meier
[7] = second-line after CHOP, N=15, investigator, Kaplan-Meier, listed as pralatrexate

C#CCC(Cc1cnc2nc(N)nc(N)c2n1)c1ccc(C(=O)N[C@@H](CCC(=O)O)C(=O)O)cc1 (mixture of isomers) [Pralatrexate, (2S)-2-[[4-[(1RS)-1-[(2,4-diaminopteridin-6-yl)methyl]but-3-ynyl]benzoyl]amino]pentanedioic acid]
CR/CRu by investigators assessment [1]: 33%
Complete responses [CR] by independent central review [1]: 20%
ORR by investigator assessment [1]: 40%
Overall response rate (ORR) by independent central review [1]: 47%
Duration of Response (individual responder after first-line CHOP, central review, censored (initiation of other subsequent therapy)): 1 day^a
Duration of Response (months) [2]: 10.1^a months and 9.7^b months and 8.3^b months and 6.5^a months and 3.3^c months and 2.3^c months
PFS (months) [2]: 14.8^a months and 17.8^b months and 15.5^b months and 8.1 months and 4.6^c months and 3.4^c months and 4.6^a months
Duration of Response (months) (individual responders after first-line CHOP, central review, most values censored, listed as pralatrexate): 2.3 months and 3.3 months
Patients still alive at the time of last contact (of the 15 patients): 73%
Patients who proceeded to a stem cell transplant upon attaining a response to pralatrexate (of the 15 patients treated only with CHOP): Two
CR/CRu by investigators assessment (other patients (n=94)): 16%
Median PFS according to central review (other patients (n=94)): 3.1 months
Median PFS per investigator assessment (other patients (n=94)): 3.5 months
Median duration of response per investigator assessment (other patients (n=94)): 6.7 months
ORR by investigators assessment (other patients (n=94)): 39%
CR/CRu by independent central review [3]: 10%
ORR by independent central review [3]: 27%
12-month OS estimate (second-line after CHOP, N=15): 73%
OS, Median, months (95% CI) (second-line after CHOP, N=15, NE = not able to estimate): not able to be estimated
PFS, Range [4]: 0.7-17.8^c months
Tumor Response: CRu [4]: 0 (0) n (%)
Tumor Response: Not evaluable [4]: 0 (0) n (%)
Tumor Response: ORR (CR + CRu + PR) [4]: 7 (47) n (%)
Tumor response: CR [4]: 3 (20) n (%)
Tumor response: PD [4]: 4 (27) n (%)
Tumor response: PR [4]: 4 (27) n (%)
Tumor response: SD [4]: 4 (27) n (%)
PFS, Median, months (95% CI) (second-line after CHOP, N=15, central review, Kaplan-Meier): 8.1 (4.6, NE) months
PFS, Median, months (95% CI) (second-line after CHOP, N=15, central review, Kaplan-Meier, listed as pralatrexate): 8.1 months
Duration of response, Median, months (95% CI) (second-line after CHOP, N=15, central review, NE = not able to estimate, insufficient PD events): not reached; also recorded: not yet estimable
Tumor Response: CRu [5]: 1 (7) n (%)
Tumor Response: Not evaluable [5]: 1 (7)^a n (%)
Tumor Response: ORR (CR + CRu + PR) [5]: 6 (40) n (%)
Tumor response: CR [5]: 4 (27) n (%)
Tumor response: PD [5]: 4 (27) n (%)
Tumor response: PR [5]: 1 (7) n (%)
Tumor response: SD [5]: 4 (27) n (%)
Duration of response, Median, months (95% CI) [6]: 12.5 (10.8, NE) months
PFS, Median, months (95% CI) [6]: 7.4 (2.3, 15.0) months
Duration of response, Median, months (95% CI) [7]: 12.5 months
PFS, Median, months (95% CI) [7]: 7.4 months
OS, Range (second-line after CHOP, N=15, survival follow-up ended at 2 years): 1.5-24.0^d months
Current disease-free period (duration of response to pralatrexate + time since stem cell transplant) (the 2 patients who proceeded to stem cell transplant): 20.9 months and 27.2 months and 20.1 months and 21.7 months
